# According to patent US7056679B2, “Target specific screening and its use for identifying target binders” (Antyra, Inc., priority 2001, dated 2006):
# No end group written: not given here.
# Legend:
# [1] = tested on: E-tag antibody; test: ELISA analysis of phage on antibody raised against ETAG (positive control); details: peptide binding to E-tag antibody; phage ELISA units read at 405 nm
# In short: (§1)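 Phage from picked clones (M13KO7 helper) bound 2 hr at room temperature to wells coated overnight at 4 °C with 500 ng/well anti-ETAG antibody or LDH, milk-blocked. Detection with HRP-anti-M13 (1:3000) and ABTS at 405 nm; positive when A405 ≥2-fold over background.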
# [2] = tested on: lactate dehydrogenase (LDH); test: ELISA analysis of phage on LDH (irrelevant, non-specific target); format: binding; details: peptide binding to LDH polypeptide (non-specific binding); phage ELISA units read at 405 nm
# In short: as §1
# [3] = biological target: T1, DGI-2 (Homo sapiens, UniProt Q15004); test: ELISA analysis of phage on DGI-2 polypeptide (specific binding); details: for DGI-2 (OD): binding to DGI-2 polypeptide (specific binding), phage ELISA units read at 405 nm; for DGI-2/LDH (OD): ratio of specific binding to non-specific binding
# T1 construct: encompassed the entire DGI-2 open reading frame (ORF); His-tag of vector pIVEX2.3-MCS (inferred from the vector and from the reverse primer lacking a stop codon); made in house; host or cells: cell-free in vitro translation (Rapid Translation System RTS, Roche; E. coli lysate)
# T1 sequence (Q15004 1-111): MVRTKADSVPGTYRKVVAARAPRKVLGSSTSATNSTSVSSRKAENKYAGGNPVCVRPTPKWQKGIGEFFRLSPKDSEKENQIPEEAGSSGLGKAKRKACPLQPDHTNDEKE
# In short: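 Recombinant DGI-2 from in vitro translation, LDH (non-specific) and controls were coated at 500 ng/well and blocked with 2% milk-PBS. Phage from individual clones bound for 2 hr at room temperature, then anti-M13-HRP with ABTS was read at 405 nm; a clone counted as positive at ≥2-fold over background.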
Substance,LDH (OD) [2],DGI-2 (OD) [3],DGI-2/LDH (OD) [3],ETAG (OD) [1]
SVSGGGVFGTGGRVRHQVSG (DGI-2-20F-PP-C5; listed as Escherichia coli),0.9 OD,2.2 OD,2.4,33.9 OD
SVTISTSCRTGCPAGYLRRD (DGI-2-20F-PP-D2; listed as Escherichia coli),0.7 OD,2.2 OD,3.1,30.8 OD
SWACGLLWPGECGSQVARRG (DGI-2-20R-3-D127; listed as Escherichia coli),1.0 OD,6.7 OD,6.4,15.4 OD
SWRLWVSGELQGDRRKGLRG (DGI-2-20R-3-B7; listed as Escherichia coli),1.0 OD,3.1 OD,3.0,11.7 OD
SYRNFAMQSSLQVRRGSVVEDGTCWWEGVRCYSG (DGI-2-40F-4-F6; listed as Escherichia coli),1.0 OD,3.2 OD,3.2,13.5 OD
TIDVARRFGYGWWDLWLDGD (DGI-2-20R-3-C3; listed as Escherichia coli),1.1 OD,7.9 OD,7.0,20.2 OD
TLVTEGNIKGSVKAHKDIGVWQLWWDWLSVTDSETVGRVSH (TLVTEGNKGSVKAHKDIGVWQLWWDWLSVTDSETVGRVSH; DGI-2-40F-3-D10; listed as Escherichia coli) [DGL-2-40F-3-D10],0.9 OD,1.5 OD,1.7,10.3 OD
TPDRCLIYSSIQCLLEYSARRGSAD (DGI-2-20C-3-C65; listed as Escherichia coli),1.0 OD,1.8 OD,1.8,7.4 OD
TPVAISIPAGVCSTSVCGRD (DGI-2-20F-PP-C11; listed as Escherichia coli),0.9 OD,2.4 OD,2.6,3.2 OD
"V#CR#LCRLCRFSMRCGGLSLVLGSAAAFFCEVFVGFCV (VCRLCRLCRFSMRCGGLSLVLGSAAAFFCEVFVGFCV; not fully specified (residues 1, 3); cysteine pairing not given here; also: TAA stop codons (#) after V1 and after R3; listed as Escherichia coli) [DGI-2-40F-4-E1130]",0.9 OD,2.9 OD,3.2,8.3 OD
VAFGEQJRVAMAGTLWQRWR (VAFGEQIRVAMAGTLWQRWR; not fully specified; non-natural residue J; DGI-2-20R-3-D5; listed as Escherichia coli),1.1 OD,1.5 OD,1.4,8.5 OD
VCGQRVARMQLNKTIRKLDS (DGI-2-20F-PP-A6; listed as Escherichia coli),1.1 OD,3.1 OD,2.8,35.1 OD
VGHLLSRCAHHSPGMGASPYG (DGI-2-20F-PP-B11; listed as Escherichia coli),1.0 OD,2.6 OD,2.7,40.8 OD
VGQSSGDARPLANLFVFPFV (DGI-2-20F-PP-F12; listed as Escherichia coli),0.9 OD,2.1 OD,2.3,47.6 OD
VLCLE#ALGLSGLGWRVVVGP (VLCLEALGLSGLGWRVVVGP; DGI-2-20F-PP-G4; listed as Escherichia coli),1.1 OD,2.5 OD,2.2,25.6 OD
VLGADAGMIWFMDGCGIRCR (DGI-2-20R-4-E6; listed as Escherichia coli),1.0 OD,7.0 OD,7.0,19.1 OD
VLQRSLWKDWVDGVMHGGGSRGV (DGI-2-20R-3-A7; listed as Escherichia coli),0.9 OD,4.8 OD,5.1,13.9 OD
VQSGRDLGGLLRGGTGTEASP (DGI-2-20F-PP-D3; listed as Escherichia coli),0.9 OD,2.2 OD,2.4,15.0 OD
VRAVYSRDAYNEVGRWMRVGI (DGI-2-20F-PP-D9; listed as Escherichia coli),1.0 OD,2.9 OD,2.9,9.0 OD
VSFAHDWGRWWYQWEVG (DGI-2-20R-4-G22; listed as Escherichia coli),1.2 OD,7.9 OD,6.5,12.9 OD
VSGVPDGSMRAAQLASGYWC (DGI-2-20F-PP-G2; listed as Escherichia coli),1.1 OD,2.4 OD,2.1,5.6 OD
VVHTRAWGSWAYGFVLRNRG (DGI-2-20F-PP-F10; listed as Escherichia coli),1.3 OD,3.5 OD,2.8,42.5 OD
VVRQGCMAFSGLCSGVTESE (DGI-2-20R-3-C8; listed as Escherichia coli),1.1 OD,5.6 OD,5.3,21.1 OD
VWAAWVEGSLLSPRQEPVRD (DGI-2-20R-4-G4; listed as Escherichia coli),1.0 OD,10.2 OD,9.8,13.6 OD
VWRDWVNGTVGLRNREKPGV (DGI2-20R-3-A5; listed as Escherichia coli) [DGI-2-20R-3-A5],1.1 OD,10.9 OD,9.8,14.9 OD

# Continued, in another order:
LDH (OD) [2],DGI-2 (OD) [3],DGI-2/LDH (OD) [3],Substance,ETAG (OD) [1]
1.1 OD,3.0 OD,2.6,SSVWATWGSDLRTFGSVGFL (DGI-2-20F-PP-C7; listed as Escherichia coli),11.0 OD
1.1 OD,2.7 OD,2.5,TANGHRYGGCGLWCKWMSGM (DGI-2-20R-4-E2; listed as Escherichia coli),18.2 OD
1.0 OD,4.6 OD,4.5,TCWIHRGLNVVRYSVNFGVRDARLTTQGMAWFPPGCGQGCV (TCWHRGLNVVRYSVNFGVRDARLTTQGMAWFPPGCGQGCV; DGI-2-40F-4-E62; listed as Escherichia coli),14.8 OD
1.2 OD,2.7 OD,2.3,TFTRDVAGPAVSFVRLHSWN (DGI-2-20F-PP-A9; listed as Escherichia coli),40.8 OD
1.0 OD,2.8 OD,2.7,TSCQVMFLAGQHLLSRVPRL (DGI-2-20R-3-B6; listed as Escherichia coli) [DGL-2-20R-3-B6],11.7 OD
1.1 OD,5.5 OD,5.2,TVKFQGVVQERSRIAGFRYCGDHAVSWGLAGCPALRDKLQ (DGI-2-40F-3-C424; listed as Escherichia coli),14.8 OD
1.0 OD,3.3 OD,3.1,VCSGGKGTWLEIPDRVRSST (DGI-2-20F-PP-A22; listed as Escherichia coli),44.1 OD
1.0 OD,5.2 OD,5.3,VHSQGRMWAIPGLRGGTGAS (DGI-2-20R-3-D7; listed as Escherichia coli),18.7 OD
0.9 OD,0.9 OD,1.1,VQFAMTLSSRLWQHARHPLTDDAPPTVSFGTRRETLAGKA (DGI-2-40F-3-D3; listed as Escherichia coli),0.9 OD
0.8 OD,1.6 OD,2.0,VSGY#SLWWCGPGWGPRSGR (VSGYSLWWCGPGWGPRSGR; DGI-2-20F-PP-H11; listed as Escherichia coli),2.1 OD
1.0 OD,2.4 OD,2.5,VTGTRFRGFAVACVRMGTWH (DGI-2-20F-PP-F2; listed as Escherichia coli),1.9 OD
1.1 OD,2.3 OD,2.2,VVGYAQGDGLEGGLGSSRDGS (DGI-2-20F-PP-D8; listed as Escherichia coli),2.6 OD
